Earlier results in patent US8307894B2, “Composition and method for inhibiting the deleterious effects of sulfate reducing bacteria” (priority 2009, dated 2012).
Like-named read-outs stand apart in the source and are kept apart here.

What was measured:
[1] = test system: sulfate reducing bacteria; conditions: government study (12/04)
[2] = test system: insects and aquatic life including fish
[3] = not given; remark: listed apart in the source
[4] = test system: humans and other mammals

| Structure (SMILES) | inhibition of sulfate reducing bacteria [1] | lifetime in the environment (breaks down when exposed to sunlight) | persistence in water (in water) | toxicity [2] | Solubility ([3]; in ethanol) | Solubility ([3]; in ether and acetone) | toxicity [4] |
| --- | --- | --- | --- | --- | --- | --- | --- |
| [O]=[Mo](=[O])([O-])[O-] [molybdate] | possible candidates as inhibitors |  |  |  |  |  |  |
| C=C(C)[C@H]1Cc2c(ccc3c2O[C@@H]2COc4cc(OC)c(OC)cc4[C@@H]2C3=O)O1 [rotenone] |  | six | six | extremely toxic | slightly soluble | Soluble | mildly toxic |
